Laboratory results as given in patent US9776962B2, “Aromatic compounds with GPR40 agonistic activity” (TAKEDA PHARMACEUTICAL COMPANY LIMITED, priority 2013, dated 2017).

Biological target: T1, human GPR40 (Homo sapiens, UniProt O14842)
T1 construct: expressed in transfected cells
Experiment: Evaluation of human GPR40 agonist activity with increase in intracellular Ca2+ concentration as an index (FLIPR)
Format: cell-based
Settings: test compound 1 μM; CHO(dhfr−) cells stably expressing human GPR40; 100% = 10 μM compound of Example 153, 0% = DMSO
Outline: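 CHO(dhfr−) cells stably expressing full-length human GPR40 were loaded with Ca2+ probe for 1 h at room temperature, then given test compound at 1 μM final. Fluorescence was followed on FLIPR, with activity scaled to a reference agonist at 10 μM (100%) and DMSO (0%).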

T1 sequence (O14842 whole entry): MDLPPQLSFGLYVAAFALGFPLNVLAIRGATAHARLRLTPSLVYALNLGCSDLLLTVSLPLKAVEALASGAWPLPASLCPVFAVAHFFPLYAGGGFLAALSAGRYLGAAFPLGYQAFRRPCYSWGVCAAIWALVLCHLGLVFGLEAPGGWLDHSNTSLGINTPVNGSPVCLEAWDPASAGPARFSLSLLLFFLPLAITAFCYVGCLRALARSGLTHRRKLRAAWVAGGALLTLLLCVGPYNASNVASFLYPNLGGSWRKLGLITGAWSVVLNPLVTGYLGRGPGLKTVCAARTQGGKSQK

SMILES	activation at 1 µM
COc1ccc(C(=O)N(CC(C)C)c2ncccc2C)c(N2CCC(COc3cc(C(CC(=O)O)C4CC4)ccn3)CC2)c1 (stereo not shown) [Example 150, 3-cyclopropyl-3-(2-((1-(5-methoxy-2-((2-methylpropyl)(3-methylpyridin-2-yl)carbamoyl)phenyl)piperidin-4-yl)methoxy)pyridin-4-yl)propanoic acid]	84%
COc1ccc(C(=O)N(c2ccccn2)C2CCC2)c(N2CCC(COc3cc(C(CC(=O)O)C4CC4)ccn3)CC2)c1 (stereo not shown) [Example 151, 3-(2-((1-(2-(cyclobutyl(pyridin-2-yl)carbamoyl)-5-methoxyphenyl)piperidin-4-yl)methoxy)pyridin-4-yl)-3-cyclopropylpropanoic acid]	87%
COc1ccc(C(=O)N(CC(C)(C)F)c2cccc(C)n2)c(N2CCC(COc3cc(C(CC(=O)O)C4CC4)ccn3)CC2)c1 (stereo not shown) [Example 152, 3-cyclopropyl-3-(2-((1-(2-((2-fluoro-2-methylpropyl)(6-methylpyridin-2-yl)carbamoyl)-5-methoxyphenyl)piperidin-4-yl)methoxy)pyridin-4-yl)propanoic acid]	100%
COc1ccc(C(=O)N(CC(C)(C)C)c2ncccn2)c(N2CCC(COc3cc(C(CC(=O)O)C4CC4)ccn3)CC2)c1 (stereo not shown) [Example 156, 3-cyclopropyl-3-(2-((1-(2-((2,2-dimethylpropyl)(pyrimidin-2-yl)carbamoyl)-5-methoxyphenyl)piperidin-4-yl)methoxy)pyridin-4-yl)propanoic acid]	98%
COc1ccc(C(=O)N(CC(F)F)c2cc(C)ccn2)c(N2CCC(COc3cc(C(CC(=O)O)C4CC4)ccn3)CC2)c1 (stereo not shown) [Example 157, 3-cyclopropyl-3-(2-((1-(2-((2,2-difluoroethyl)(4-methylpyridin-2-yl)carbamoyl)-5-methoxyphenyl)piperidin-4-yl)methoxy)pyridin-4-yl)propanoic acid]	96%
COc1ccc(C(=O)N(CC(C)C)c2cc(C#N)ccn2)c(N2CCC(COc3cc(C(CC(=O)O)C4CC4)ccn3)CC2)c1 (stereo not shown) [Example 158, 3-(2-((1-(2-((4-cyanopyridin-2-yl)(2-methylpropyl)carbamoyl)-5-methoxyphenyl)piperidin-4-yl)methoxy)pyridin-4-yl)-3-cyclopropylpropanoic acid]	96%
COc1ccc(C(=O)N(c2ccccn2)C2CC(F)(F)C2)c(N2CCC(COc3cc(C(CC(=O)O)C4CC4)ccn3)CC2)c1 (stereo not shown) [Example 165, 3-cyclopropyl-3-(2-((1-(2-((3,3-difluorocyclobutyl)(pyridin-2-yl)carbamoyl)-5-methoxyphenyl)piperidin-4-yl)methoxy)pyridin-4-yl)propanoic acid]	97%
COc1ccc(C(=O)N(CC(F)F)c2ncccn2)c(N2CCC(COc3cc(C(CC(=O)O)C4CC4)ccn3)CC2)c1 (stereo not shown) [Example 167, 3-cyclopropyl-3-(2-((1-(2-((2,2-difluoroethyl)(pyrimidin-2-yl)carbamoyl)-5-methoxyphenyl)piperidin-4-yl)methoxy)pyridin-4-yl)propanoic acid]	90%
COc1ccc(C(=O)N(CC(F)(F)F)c2nc(C)cc(C)n2)c(N2CCC(COc3cc(C(CC(=O)O)C4CC4)ccn3)CC2)c1 (stereo not shown) [Example 168, 3-cyclopropyl-3-(2-((1-(2-((4,6-dimethylpyrimidin-2-yl)(2,2,2-trifluoroethyl)carbamoyl)-5-methoxyphenyl)piperidin-4-yl)methoxy)pyridin-4-yl)propanoic acid]	100%
COc1ccc(C(=O)N(CC(F)(F)F)c2nccc(C)n2)c(N2CCC(COc3cc(C(CC(=O)O)C4CC4)ccn3)CC2)c1 (stereo not shown) [Example 169, 3-cyclopropyl-3-(2-((1-(5-methoxy-2-((4-methylpyrimidin-2-yl)(2,2,2-trifluoroethyl)carbamoyl)phenyl)piperidin-4-yl)methoxy)pyridin-4-yl)propanoic acid]	106%
COc1ccc(C(=O)N(CC(F)(F)C(F)(F)F)c2ncccn2)c(N2CCC(COc3cc(C(CC(=O)O)C4CC4)ccn3)CC2)c1 (stereo not shown) [Example 170, 3-cyclopropyl-3-(2-((1-(5-methoxy-2-((2,2,3,3,3-pentafluoropropyl)(pyrimidin-2-yl)carbamoyl)phenyl)piperidin-4-yl)methoxy)pyridin-4-yl)propanoic acid]	104%
COc1ccc(C(=O)N(CC(F)(F)C(F)(F)F)c2nccc(C)n2)c(N2CCC(COc3cc(C(CC(=O)O)C4CC4)ccn3)CC2)c1 (stereo not shown) [Example 171, 3-cyclopropyl-3-(2-((1-(5-methoxy-2-((4-methylpyrimidin-2-yl)(2,2,3,3,3-pentafluoropropyl)carbamoyl)phenyl)piperidin-4-yl)methoxy)pyridin-4-yl)propanoic acid]	106%

Other lines, results leading:

activation at 1 µM	SMILES
82%	COc1ccc(C(=O)N(c2ccccn2)C(C)C)c(N2CCC(COc3cc(C(CC(=O)O)C4CC4)ccn3)CC2)c1 (stereo not shown) [Example 146, 3-cyclopropyl-3-(2-((1-(5-methoxy-2-(propan-2-yl(pyridin-2-yl)carbamoyl)phenyl)piperidin-4-yl)methoxy)pyridin-4-yl)propanoic acid]
97%	COc1ccc(C(=O)N(CC(C)(F)F)c2cc(C)ccn2)c(N2CCC(COc3cc(C(CC(=O)O)C4CC4)ccn3)CC2)c1 (stereo not shown) [Example 147, 3-cyclopropyl-3-(2-((1-(2-((2,2-difluoropropyl)(4-methylpyridin-2-yl)carbamoyl)-5-methoxyphenyl)piperidin-4-yl)methoxy)pyridin-4-yl)propanoic acid]
104%	COc1ccc(C(=O)N(CC(F)(F)F)c2cc(C)ccn2)c(N2CCC(COc3cc(C(CC(=O)O)C4CC4)ccn3)CC2)c1 (stereo not shown) [Example 148, 3-cyclopropyl-3-(2-((1-(5-methoxy-2-((4-methylpyridin-2-yl)(2,2,2-trifluoroethyl)carbamoyl)phenyl)piperidin-4-yl)methoxy)pyridin-4-yl)propanoic acid]
101%	CCC(C)(C)CN(C(=O)c1ccc(OC)cc1N1CCC(COc2cc(C(CC(=O)O)C3CC3)ccn2)CC1)c1ccccn1 (stereo not shown) [Example 149, 3-cyclopropyl-3-(2-((1-(2-((2,2-dimethylbutyl)(pyridin-2-yl)carbamoyl)-5-methoxyphenyl)piperidin-4-yl)methoxy)pyridin-4-yl)propanoic acid]
100%	COc1ccc(C(=O)N(CC2(F)CCC2)c2ccccn2)c(N2CCC(COc3cc(C(CC(=O)O)C4CC4)ccn3)CC2)c1 (stereo not shown) [Example 154, 3-cyclopropyl-3-(2-((1-(2-(((1-fluorocyclobutyl)methyl)(pyridin-2-yl)carbamoyl)-5-methoxyphenyl)piperidin-4-yl)methoxy)pyridin-4-yl)propanoic acid]
96%	COCC(C)(C)CN(C(=O)c1ccc(OC)cc1N1CCC(COc2cc(C(CC(=O)O)C3CC3)ccn2)CC1)c1ccccn1 (stereo not shown) [Example 155, 3-cyclopropyl-3-(2-((1-(5-methoxy-2-((3-methoxy-2,2-dimethylpropyl)(pyridin-2-yl)carbamoyl)phenyl)piperidin-4-yl)methoxy)pyridin-4-yl)propanoic acid]
103%	COc1ccc(C(=O)N(CCC(C)C)c2ccccn2)c(N2CCC(COc3cc(C(CC(=O)O)C4CC4)ccn3)CC2)c1 (stereo not shown) [Example 159, 3-cyclopropyl-3-(2-((1-(5-methoxy-2-((3-methylbutyl)(pyridin-2-yl)carbamoyl)phenyl)piperidin-4-yl)methoxy)pyridin-4-yl)propanoic acid]
97%	COc1ccc(C(=O)N(CC(C)(C)OC(C)C)c2ccccn2)c(N2CCC(COc3cc(C(CC(=O)O)C4CC4)ccn3)CC2)c1 (stereo not shown) [Example 160, 3-cyclopropyl-3-(2-((1-(2-((2-isopropoxy-2-methylpropyl)(pyridin-2-yl)carbamoyl)-5-methoxyphenyl)piperidin-4-yl)methoxy)pyridin-4-yl)propanoic acid]
97%	COc1ccc(C(=O)N(CC(C)(C)OCC(F)(F)F)c2ccccn2)c(N2CCC(COc3cc(C(CC(=O)O)C4CC4)ccn3)CC2)c1 (stereo not shown) [Example 161, 3-cyclopropyl-3-(2-((1-(5-methoxy-2-((2-methyl-2-(2,2,2-trifluoroethoxy)propyl)(pyridin-2-yl)carbamoyl)phenyl)piperidin-4-yl)methoxy)pyridin-4-yl)propanoic acid]
99%	COc1ccc(C(=O)N(CC2CC(F)(F)C2)c2ccccn2)c(N2CCC(COc3cc(C(CC(=O)O)C4CC4)ccn3)CC2)c1 (stereo not shown) [Example 162, 3-cyclopropyl-3-(2-((1-(2-(((3,3-difluorocyclobutyl)methyl)(pyridin-2-yl)carbamoyl)-5-methoxyphenyl)piperidin-4-yl)methoxy)pyridin-4-yl)propanoic acid]
89%	COc1ccc(C(=O)N(CC(F)(F)F)c2ccnc(C)c2)c(N2CCC(COc3cc(C(CC(=O)O)C4CC4)ccn3)CC2)c1 (stereo not shown) [Example 163, 3-cyclopropyl-3-(2-((1-(5-methoxy-2-((2-methylpyridin-4-yl)(2,2,2-trifluoroethyl)carbamoyl)phenyl)piperidin-4-yl)methoxy)pyridin-4-yl)propanoic acid]
88%	COc1ccc(C(=O)N(CC(C)(C)OC)c2cc(C)ccn2)c(N2CCC(COc3cc(C(CC(=O)O)C4CC4)ccn3)CC2)c1 (stereo not shown) [Example 164, 3-cyclopropyl-3-(2-((1-(5-methoxy-2-((2-methoxy-2-methylpropyl)(4-methylpyridin-2-yl)carbamoyl)phenyl)piperidin-4-yl)methoxy)pyridin-4-yl)propanoic acid]
97%	COc1ccc(C(=O)N(CC(F)(F)F)c2ncccn2)c(N2CCC(COc3cc(C(CC(=O)O)C4CC4)ccn3)CC2)c1 (stereo not shown) [Example 166, 3-cyclopropyl-3-(2-((1-(5-methoxy-2-(pyrimidin-2-yl(2,2,2-trifluoroethyl)carbamoyl)phenyl)piperidin-4-yl)methoxy)pyridin-4-yl)propanoic acid]
